{"source": "ChEMBL document CHEMBL3045042", "about": "“The discovery of SYP-10913 and SYP-11277: novel strobilurin acaricides” (Pest Manag Sci, 2011)", "key": {"Tetranychus cinnabarinus [1]": {"system": "Tetranychus cinnabarinus", "experiment": "Acaricidal activity against Tetranychus cinnabarinus (carmine spider mite) in kidney bean leaf assessed as mortality at 40 mg/L measured after 72 hr of spray", "type": "functional"}, "Tetranychus cinnabarinus [2]": {"system": "Tetranychus cinnabarinus", "experiment": "Acaricidal activity against Tetranychus cinnabarinus (carmine spider mite) in kidney bean leaf assessed as mortality at 10 mg/L measured after 72 hr of spray", "type": "functional"}, "Tetranychus cinnabarinus [3]": {"system": "Tetranychus cinnabarinus", "experiment": "Acaricidal activity against Tetranychus cinnabarinus (carmine spider mite) in kidney bean leaf assessed as mortality at 5 mg/L measured after 72 hr of spray", "type": "functional"}, "Oryctolagus cuniculus [4]": {"species_on_record": "Oryctolagus cuniculus", "experiment": "Toxicity in Oryctolagus cuniculus (rabbit) assessed as eye irritation", "type": "organism-based", "conditions": "in vivo"}, "Tetranychus cinnabarinus [5]": {"system": "Tetranychus cinnabarinus", "experiment": "Acaricidal activity against Tetranychus cinnabarinus (carmine spider mite) in kidney bean leaf assessed as mortality at 1.25 mg/L measured after 72 hr of spray", "type": "functional"}, "Tetranychus cinnabarinus [6]": {"system": "Tetranychus cinnabarinus", "experiment": "Acaricidal activity against eggs of Tetranychus cinnabarinus (carmine spider mite) in kidney bean leaf assessed as unhatched eggs measured after 120 hr", "type": "functional"}, "[7]": {"experiment": "Acute percutaneous toxicity in Mus musculus (mouse)", "type": "organism-based", "conditions": "in vivo, topical or ocular"}, "Oryctolagus cuniculus [8]": {"species_on_record": "Oryctolagus cuniculus", "experiment": "Toxicity in Oryctolagus cuniculus (rabbit) assessed as skin irritation", "type": "organism-based", "conditions": "in vivo"}, "Salmonella typhimurium": {"system": "Salmonella typhimurium", "experiment": "Genotoxicity in Salmonella enterica subsp. enterica serovar Typhimurium by Ames test", "type": "toxicity, organism-based"}, "Tetranychus cinnabarinus [9]": {"system": "Tetranychus cinnabarinus", "experiment": "Acaricidal activity against nymphs of Tetranychus cinnabarinus (carmine spider mite) in kidney bean leaf assessed as mortality measured after 120 hr", "type": "functional"}, "[10]": {"experiment": "Acute oral toxicity in Mus musculus (mouse)", "type": "organism-based", "conditions": "in vivo"}, "Tetranychus cinnabarinus [11]": {"system": "Tetranychus cinnabarinus", "experiment": "Acaricidal activity against Tetranychus cinnabarinus (carmine spider mite) in kidney bean leaf assessed as mortality at 2.5 mg/L measured after 72 hr of spray", "type": "functional"}}}
{"smiles": "CO/C=C(/C(=O)OC)c1ccccc1COc1cc(C(F)(F)F)nc(Nc2ccc(C(F)(F)F)cc2)n1", "values": [{"measurement": "mortality at 40 µg/mL", "setting": "Tetranychus cinnabarinus [1]", "result": 0, "unit": "%"}, {"measurement": "mortality at 10 µg/mL", "setting": "Tetranychus cinnabarinus [2]", "result": 0, "unit": "%"}]}
{"smiles": "CO/C=C(/C(=O)OC)c1ccccc1COc1cc(C(F)(F)F)nc(Nc2ccc(OC)cc2)n1", "values": [{"measurement": "mortality at 40 µg/mL", "setting": "Tetranychus cinnabarinus [1]", "result": 0, "unit": "%"}, {"measurement": "mortality at 10 µg/mL", "setting": "Tetranychus cinnabarinus [2]", "result": 0, "unit": "%"}]}
{"smiles": "CO/C=C(/C(=O)OC)c1ccccc1COc1cc(C(F)(F)F)nc(Nc2ccc(C)cc2)n1", "values": [{"measurement": "mortality at 40 µg/mL", "setting": "Tetranychus cinnabarinus [1]", "result": 0, "unit": "%"}, {"measurement": "mortality at 10 µg/mL", "setting": "Tetranychus cinnabarinus [2]", "result": 0, "unit": "%"}]}
{"smiles": "CO/C=C(/C(=O)OC)c1ccccc1COc1cc(C(F)(F)F)nc(Nc2cccc(C)c2)n1", "values": [{"measurement": "mortality at 40 µg/mL", "setting": "Tetranychus cinnabarinus [1]", "result": 90, "unit": "%"}, {"measurement": "mortality at 10 µg/mL", "setting": "Tetranychus cinnabarinus [2]", "result": 20, "unit": "%"}]}
{"smiles": "CO/C=C(/C(=O)OC)c1ccccc1COc1cc(C(F)(F)F)nc(Nc2ccccc2C)n1", "values": [{"measurement": "mortality at 40 µg/mL", "setting": "Tetranychus cinnabarinus [1]", "result": 100, "unit": "%"}, {"measurement": "mortality at 10 µg/mL", "setting": "Tetranychus cinnabarinus [2]", "result": 0, "unit": "%"}]}
{"smiles": "CO/C=C(/C(=O)OC)c1ccccc1COc1cc(C(F)(F)F)nc(Nc2ccc(C)cc2C)n1", "values": [{"measurement": "mortality at 40 µg/mL", "setting": "Tetranychus cinnabarinus [1]", "result": 100, "unit": "%"}, {"measurement": "mortality at 10 µg/mL", "setting": "Tetranychus cinnabarinus [2]", "result": 76, "unit": "%"}]}
{"smiles": "CO/C=C(/C(=O)OC)c1ccccc1COc1cc(C(F)(F)F)nc(Nc2cc(C)ccc2C)n1", "values": [{"measurement": "mortality at 40 µg/mL", "setting": "Tetranychus cinnabarinus [1]", "result": 0, "unit": "%"}, {"measurement": "mortality at 10 µg/mL", "setting": "Tetranychus cinnabarinus [2]", "result": 0, "unit": "%"}]}
{"smiles": "CO/C=C(/C(=O)OC)c1ccccc1COc1cc(C(F)(F)F)nc(Nc2ccc(C)c(C)c2)n1", "values": [{"measurement": "mortality at 40 µg/mL", "setting": "Tetranychus cinnabarinus [1]", "result": 97, "unit": "%"}, {"measurement": "mortality at 10 µg/mL", "setting": "Tetranychus cinnabarinus [2]", "result": 20, "unit": "%"}]}
{"smiles": "CO/C=C(/C(=O)OC)c1ccccc1COc1cc(C(F)(F)F)nc(Nc2cccc(Cl)c2Cl)n1", "values": [{"measurement": "mortality at 5 µg/mL", "setting": "Tetranychus cinnabarinus [3]", "result": 99, "unit": "%"}, {"measurement": "Activity", "setting": "Oryctolagus cuniculus [4]", "result": "Toxic"}, {"measurement": "mortality at 1.25 µg/mL", "setting": "Tetranychus cinnabarinus [5]", "result": 75, "unit": "%"}, {"measurement": "LC50", "setting": "Tetranychus cinnabarinus [6]", "result": 4.75, "unit": "µg/mL"}, {"measurement": "LD50", "setting": "[7]", "result": "≥ 2150", "unit": "mg/kg"}, {"measurement": "Activity", "setting": "Oryctolagus cuniculus [8]", "result": "Non-toxic"}, {"measurement": "Activity", "setting": "Salmonella typhimurium", "result": "Non-toxic"}, {"measurement": "LC50", "setting": "Tetranychus cinnabarinus [9]", "result": 0.34, "unit": "µg/mL"}, {"measurement": "LD50", "setting": "[10]", "result": "≥ 4640", "unit": "mg/kg"}, {"measurement": "mortality at 40 µg/mL", "setting": "Tetranychus cinnabarinus [1]", "result": 100, "unit": "%"}, {"measurement": "mortality at 10 µg/mL", "setting": "Tetranychus cinnabarinus [2]", "result": 100, "unit": "%"}, {"measurement": "mortality at 2.5 µg/mL", "setting": "Tetranychus cinnabarinus [11]", "result": 95, "unit": "%"}]}
{"smiles": "CO/C=C(/C(=O)OC)c1ccccc1COc1cc(C(F)(F)F)nc(Nc2cc(Cl)ccc2Cl)n1", "values": [{"measurement": "mortality at 40 µg/mL", "setting": "Tetranychus cinnabarinus [1]", "result": 100, "unit": "%"}, {"measurement": "mortality at 10 µg/mL", "setting": "Tetranychus cinnabarinus [2]", "result": 20, "unit": "%"}]}
{"smiles": "CO/C=C(/C(=O)OC)c1ccccc1COc1cc(C(F)(F)F)nc(Nc2c(Cl)cccc2Cl)n1", "values": [{"measurement": "mortality at 40 µg/mL", "setting": "Tetranychus cinnabarinus [1]", "result": 0, "unit": "%"}, {"measurement": "mortality at 10 µg/mL", "setting": "Tetranychus cinnabarinus [2]", "result": 0, "unit": "%"}]}
{"smiles": "CO/C=C(/C(=O)OC)c1ccccc1COc1cc(C(F)(F)F)nc(Nc2ccc(Cl)c(Cl)c2)n1", "values": [{"measurement": "mortality at 40 µg/mL", "setting": "Tetranychus cinnabarinus [1]", "result": 73, "unit": "%"}, {"measurement": "mortality at 10 µg/mL", "setting": "Tetranychus cinnabarinus [2]", "result": 0, "unit": "%"}]}
{"smiles": "CO/C=C(/C(=O)OC)c1ccccc1COc1cc(C(F)(F)F)nc(Nc2cc(Cl)cc(Cl)c2)n1", "values": [{"measurement": "mortality at 40 µg/mL", "setting": "Tetranychus cinnabarinus [1]", "result": 0, "unit": "%"}, {"measurement": "mortality at 10 µg/mL", "setting": "Tetranychus cinnabarinus [2]", "result": 0, "unit": "%"}]}
{"smiles": "CO/C=C(/C(=O)OC)c1ccccc1COc1cc(C(F)(F)F)nc(Nc2ccc(Cl)c(Cl)c2Cl)n1", "values": [{"measurement": "mortality at 5 µg/mL", "setting": "Tetranychus cinnabarinus [3]", "result": 100, "unit": "%"}, {"measurement": "mortality at 1.25 µg/mL", "setting": "Tetranychus cinnabarinus [5]", "result": 75, "unit": "%"}, {"measurement": "mortality at 40 µg/mL", "setting": "Tetranychus cinnabarinus [1]", "result": 100, "unit": "%"}, {"measurement": "mortality at 10 µg/mL", "setting": "Tetranychus cinnabarinus [2]", "result": 100, "unit": "%"}, {"measurement": "mortality at 2.5 µg/mL", "setting": "Tetranychus cinnabarinus [11]", "result": 98, "unit": "%"}]}
{"smiles": "CO/C=C(/C(=O)OC)c1ccccc1COc1cc(C(F)(F)F)nc(Nc2cc(Cl)c(Cl)cc2Cl)n1", "values": [{"measurement": "mortality at 40 µg/mL", "setting": "Tetranychus cinnabarinus [1]", "result": 0, "unit": "%"}, {"measurement": "mortality at 10 µg/mL", "setting": "Tetranychus cinnabarinus [2]", "result": 0, "unit": "%"}]}
{"smiles": "CO/C=C(/C(=O)OC)c1ccccc1COc1cc(C(F)(F)F)nc(Nc2ccc(Cl)c(C)c2Cl)n1", "values": [{"measurement": "mortality at 5 µg/mL", "setting": "Tetranychus cinnabarinus [3]", "result": 100, "unit": "%"}, {"measurement": "mortality at 1.25 µg/mL", "setting": "Tetranychus cinnabarinus [5]", "result": 79, "unit": "%"}, {"measurement": "mortality at 40 µg/mL", "setting": "Tetranychus cinnabarinus [1]", "result": 100, "unit": "%"}, {"measurement": "mortality at 10 µg/mL", "setting": "Tetranychus cinnabarinus [2]", "result": 100, "unit": "%"}, {"measurement": "mortality at 2.5 µg/mL", "setting": "Tetranychus cinnabarinus [11]", "result": 92, "unit": "%"}]}
{"smiles": "CO/C=C(/C(=O)OC)c1ccccc1COc1cc(C(F)(F)F)nc(Nc2cccc(Cl)c2C)n1", "values": [{"measurement": "mortality at 40 µg/mL", "setting": "Tetranychus cinnabarinus [1]", "result": 0, "unit": "%"}, {"measurement": "mortality at 10 µg/mL", "setting": "Tetranychus cinnabarinus [2]", "result": 0, "unit": "%"}]}
{"smiles": "CO/C=C(/C(=O)OC)c1ccccc1COc1cc(C(F)(F)F)nc(Nc2ccc(Cl)cc2C)n1", "values": [{"measurement": "mortality at 40 µg/mL", "setting": "Tetranychus cinnabarinus [1]", "result": 0, "unit": "%"}, {"measurement": "mortality at 10 µg/mL", "setting": "Tetranychus cinnabarinus [2]", "result": 0, "unit": "%"}]}
{"smiles": "CO/C=C(/C(=O)OC)c1ccccc1COc1cc(C(F)(F)F)nc(Nc2ccc(Cl)cc2)n1", "values": [{"measurement": "mortality at 40 µg/mL", "setting": "Tetranychus cinnabarinus [1]", "result": 0, "unit": "%"}, {"measurement": "mortality at 10 µg/mL", "setting": "Tetranychus cinnabarinus [2]", "result": 0, "unit": "%"}]}
{"smiles": "CO/C=C(/C(=O)OC)c1ccccc1COc1cc(C(F)(F)F)nc(OC(C)C)n1", "note": "[FLUACRYPYRIM]", "values": [{"measurement": "mortality at 5 µg/mL", "setting": "Tetranychus cinnabarinus [3]", "result": 94, "unit": "%"}, {"measurement": "mortality at 1.25 µg/mL", "setting": "Tetranychus cinnabarinus [5]", "result": 30, "unit": "%"}, {"measurement": "LC50", "setting": "Tetranychus cinnabarinus [6]", "result": 5.95, "unit": "µg/mL"}, {"measurement": "LC50", "setting": "Tetranychus cinnabarinus [9]", "result": 0.64, "unit": "µg/mL"}, {"measurement": "mortality at 40 µg/mL", "setting": "Tetranychus cinnabarinus [1]", "result": 100, "unit": "%"}, {"measurement": "mortality at 10 µg/mL", "setting": "Tetranychus cinnabarinus [2]", "result": 95, "unit": "%"}, {"measurement": "mortality at 2.5 µg/mL", "setting": "Tetranychus cinnabarinus [11]", "result": 65, "unit": "%"}]}
{"smiles": "CO/C=C(/C(=O)OC)c1ccccc1COc1cc(C(F)(F)F)nc(Nc2ccc(Cl)cc2Cl)n1", "note": "[SYP-11277]", "values": [{"measurement": "mortality at 5 µg/mL", "setting": "Tetranychus cinnabarinus [3]", "result": 100, "unit": "%"}, {"measurement": "mortality at 1.25 µg/mL", "setting": "Tetranychus cinnabarinus [5]", "result": 90, "unit": "%"}, {"measurement": "LC50", "setting": "Tetranychus cinnabarinus [6]", "result": 3.63, "unit": "µg/mL"}, {"measurement": "LC50", "setting": "Tetranychus cinnabarinus [9]", "result": 0.37, "unit": "µg/mL"}, {"measurement": "mortality at 40 µg/mL", "setting": "Tetranychus cinnabarinus [1]", "result": 100, "unit": "%"}, {"measurement": "mortality at 10 µg/mL", "setting": "Tetranychus cinnabarinus [2]", "result": 100, "unit": "%"}, {"measurement": "mortality at 2.5 µg/mL", "setting": "Tetranychus cinnabarinus [11]", "result": 98, "unit": "%"}]}
